# Test results published in patent US20080241274A1 (ZIOPHARM Oncology, Inc., priority 2006, published 2008).
# Assays:
# PC3 (prostate) = assay: Monolayer assay (DNA content by propidium iodide), single agents and indibulin combinations, PC3; assay type: cell-based, human; details: for Combination IC50: PC3, concentration of the named drug in the combination
# Protocol: The monolayer assay determines the in vitro antitumor activity of test compounds and their capacity to inhibit survival and proliferation of established tumor cell lines. These effects can be determined by establishing the number of viable cells based on measuring the DNA content using propidium iodide. […] Between 5,000 and 10,000 cells were seeded in 96 well plates on Day 0 and the compounds were added 1 day later and incubated for 4 days. The activity was assessed by their IC50 and IC70 values.
# Growth IC50 and IC70 values (Table 2) were determined using XLfit software package, and used to set the concentration ranges and drug ratios for the synergy detection part of the study.
# Chou-Talalay median effect method was used to quantitatively characterize drug-drug interaction [Chou T. C. Theoretical basis, experimental design, and computerized simulation of synergism and antagonism in drug combination studies. Pharmacol Rev. 2006 September; 58(3):621-81]. […] Mixtures of the drugs at multiples of their single agent IC50's were prepared, as well as serial dilutions of the mixture. Additionally, single agent dose response was determined for the same concentration ranges as used for combination study.
# The coefficient of interaction (CI(IC50)) at IC50 and coefficient of interaction under optimal experimental concentrations (CI(e)) were determined using CalcuSyn software package (Table 3, tests were performed in quadruplicate, mean values reported). Commonly, experimental values of CI<0.8 are considered synergistic, 0.8<CI<1.2 additive.
# [1] = tested on: biotin-labeled calf brain tubulin; assay: Competition with 3H-colchicine for tubulin binding (SPA beads); design: species or system bovine; details: 200-fold molar excess of cold competitor; FIG. 8
# Protocol: Where indicated, a 200-fold molar excess of cold competitor was added. Tubulin heterodimers were then precipitated with streptavidin-coated SPA beads and bound radioactivity was determined. “No tubulin” indicates non-specifically bound radioactivity measured in the absence of biotin-labeled tubulin.
# [2] = tested on: human prostate cancer xenograft (PC-3); assay: PC-3 prostate cancer xenograft; assay type: in vivo; details: 180 mg/kg/d, d. 0, 7, 14, at sacrifice of control group animals
# Excerpt: The significant differences in pharmacodynamics and safety profile of indibulin make it a strong candidate for development as an anti-cancer drug.
structure (smiles),measurement,setting,value
"O=C(Nc1ccncc1)C(=O)c1cn(Cc2ccc(Cl)cc2)c2ccccc12 [Indibulin, N-(pyridin-4-yl)-[1-(4-chlorobenzyl)-indol-3-yl]-glyoxylic acid amide]",IC50,"PC3 (prostate); Homo sapiens, PC3, single agent (combination study), read-out: Single Agent IC50",0.034 mg/L
same,Combination IC50,PC3 (prostate); indibulin + estramustine,0.014 mg/L
same,Combination IC50,PC3 (prostate); indibulin + prednisolone,0.012 mg/L
same,Inhibition of 3H-colchicine binding,[1],about 40%
same,Growth Inhibition (%),[2],63%
